One data set has as its system HIV-1. From the text: The number of stained nuclei can thus be interpreted as equal to the number of infectious virions in the challenge inoculum if there is only one round of infection prior to staining.
A short description of data set [1]: Pharmacokinetics of T1249 in rats after a single subcutaneous or intravenous dose. The class given is in vivo. The settings on record: both sexes, Sprague-Dawley, blood, rat; for half-life: read-out: T1/2terminal (converted). How it is done: Each treatment group, consisted of 9 Sprague-Dawley rats (Charles River Laboratories, Wilmington, Del.) per sex. Each member of the group received a single subcutaneous or intravenous dose of T1249 (batch 2 referenced in Example 9/Table 5). […]
Blood samples were collected from test animals over a twelve hour time period from three rats per sex per group at each time point. The time points were 0.5, 1, 2, 4, 6, 8,10, and 12 hours after dose administration.
The blood samples were analyzed using a T1249 PcAb ECLIA assay. T1249 PcAb ECLIA is a noncompetitive, two site immunoassay that utilizes two different preparations of rabbit PcAb specific for T1249. In this assay, T1249 determinations are preformed by first incubating the diluted test sample in a tube that also contains biotin-labeled antibody (preparation A) and ruthenium-labeled antibody (preparation B). In the next step, streptavidin-coated magnetic beads are added to the tube in order to capture the antibody-peptide-antibody immune complexes (sandwiches) that have formed. The mixture is then pumped through a flow-cell in the analyzer, after which an electrical current is applied to […] adjacent to the flow-cell. Light is generated through cyclical oxidation-reduction reactions between the ruthenium metal ions that are conjugated to the detector antibodies and tripropylamine ions that are present in excess in the assay buffer. This light energy is the measured end-point. A sample containing an appreciable amount of T1249 presents a higher signal compared to a sample containing little or no T1249.

In brackets after ≈: the same amount, converted by molar mass. Read-outs that look alike come from different tables or passages of the source.

The term IC50 denotes the concentration that gives 50% inhibition. Higher therefore signals lower potency. By IC90 is commonly meant the concentration needed for an effect of 90%. Read a low IC90 as greater potency. Broadly, the AUC(0-inf) is total exposure, with the tail of the curve extrapolated. Read a high AUC(0-inf) as high exposure. One may read the AUC(0-t) as the area under the concentration-time curve up to a stated or last time point. The low end stands for less exposure, the high end for more exposure. For orientation: Cmax means the peak of the concentration-time curve. By Tmax is commonly meant the time at which the peak concentration occurs.

The molecule `CC[C@H](C)[C@H](NC(=O)[C@H](CCC(N)=O)NC(=O)[C@H](C)NC(=O)[C@H](CCC(N)=O)NC(=O)[C@H](CCC(=O)O)NC(=O)[C@H](CC(C)C)NC(=O)[C@H](CC(C)C)NC(=O)[C@H](C)NC(=O)[C@@H](NC(=O)[C@@H](NC(=O)[C@H](CCCCN)NC(=O)[C@H](CCC(N)=O)NC(=O)[C@H](CCC(=O)O)NC(=O)[C@H](Cc1c[nH]c2ccccc12)NC(=O)[C@H](CCC(=O)O)NC(=O)[C@H](CCC(N)=O)NC(=O)[C@@H](N)Cc1c[nH]c2ccccc12)[C@@H](C)CC)[C@@H](C)O)C(=O)N[C@@H](CCC(N)=O)C(=O)N[C@@H](CCC(N)=O)C(=O)N[C@@H](CCC(=O)O)C(=O)N[C@@H](CCCCN)C(=O)N[C@@H](CC(N)=O)C(=O)N[C@@H](CCC(=O)O)C(=O)N[C@@H](Cc1ccc(O)cc1)C(=O)N[C@@H](CCC(=O)O)C(=O)N[C@@H](CC(C)C)C(=O)N[C@@H](CCC(N)=O)C(=O)N[C@@H](CCCCN)C(=O)N[C@@H](CC(C)C)C(=O)N[C@@H](CC(=O)O)C(=O)N[C@@H](CCCCN)C(=O)N[C@@H](Cc1c[nH]c2ccccc12)C(=O)N[C@@H](C)C(=O)N[C@@H](CO)C(=O)N[C@@H](CC(C)C)C(=O)N[C@@H](Cc1c[nH]c2ccccc12)C(=O)N[C@@H](CCC(=O)O)C(=O)N[C@@H](Cc1c[nH]c2ccccc12)C(=O)N[C@@H](Cc1ccccc1)C(N)=O` [Example T1249] gave an IC50 in the data set on HIV-1 (50% reduction in infectious virus titer) of 0.003 µg/mL (≈ 0.601 nM). The IC90 in the data set on HIV-1 (90% reduction in infectious titer) was 0.023 µg/mL (≈ 4.6 nM). Besides, in data set [1] (1.2 mg/kg (SC)), the AUC(0-inf) was determined as 27600 ng·h/mL, the AUC(0-t) amounted to 27000 ng·h/mL, the highest level (Cmax) was 6370 ng/mL and the Tmax came out at 1.09 h. Also, the half-life in data set [1] (1.2 mg/kg (SC)) is 2.02 h. For the same molecule, in data set [1] (1.5 mg/kg (IV)), the AUC(0-inf) turned out to be 47100 ng·h/mL, the AUC(0-t) amounted to 45600 ng·h/mL, the Cmax came to 15700 ng/mL and the half-life is 2.46 h. In addition, in data set [1] (5.0 mg/kg (IV)), the total exposure AUC(0-inf) worked out at 120000 ng·h/mL, the AUC(0-t) amounted to 118000 ng·h/mL, the Cmax was found to be 46300 ng/mL and the half-life is 1.86 h. In data set [1] (15 mg/kg (SC)), the AUC(0-inf) stood at 110000 ng·h/mL, the AUC(0-t) was found to be 107000 ng·h/mL, the Cmax amounted to 21500 ng/mL and the time of peak concentration (Tmax) turned out to be 1.88 h. For the same molecule, the half-life in data set [1] (15 mg/kg (SC)) was 2 h.

Values taken from patent US7084261B2, “Pegylated T1249 polypeptide” (Hoffmann-La Roche Inc., priority 2002, dated 2006).
